Experimental data published in US6706664B1, “Benzoxazole compounds, process for the preparation thereof and herbicides” (UBE Industries, Ltd., priority 1999, dated 2004).

Legend:
Parameters in all cases: key: 0: normal development; 1: Less damaged; 2: Slightly damaged; 3: Moderately damaged; 4: Severely damaged; 5: All killed
corn [1] = assay: Soil treatment test for upland field; assay type: in vivo; conditions: 500 g/ha, glass house 25° C., 3 weeks
How it was run: (§1)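 Soil treatment, 500 g/ha, sprayed onto soil surface after sowing; alluvial Ube soil; 0.05% surfactant in diluent; glasshouse, avg 25° C, 3 wk; visual score 0–5 (5 = all killed).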

cotton = assay: Soil treatment test for upland field; assay type: in vivo; conditions: 500 g/ha, glass house 25° C., 3 weeks
How it was run: as §1

solgum [2] = assay: Soil treatment test for upland field; assay type: in vivo; conditions: 500 g/ha, glass house 25° C., 3 weeks
How it was run: as §1

soybean = assay: Soil treatment test for upland field; assay type: in vivo; conditions: 500 g/ha, glass house 25° C., 3 weeks
How it was run: as §1

sugar beat [3] = assay: Soil treatment test for upland field; assay type: in vivo; conditions: 500 g/ha, glass house 25° C., 3 weeks
How it was run: as §1

wheat [4] = assay: Soil treatment test for upland field; assay type: in vivo; conditions: 500 g/ha, glass house 25° C., 3 weeks
How it was run: as §1

Large crabgrass [5] = assay: Soil treatment test for upland field; assay type: in vivo, Digitaria adscendens; conditions: 500 g/ha, glass house 25° C., 3 weeks
How it was run: as §1

barnyardgrass = assay: Soil treatment test for upland field; assay type: in vivo, Echinochloa crusgalli; conditions: 500 g/ha, glass house 25° C., 3 weeks
How it was run: as §1

green foxtail [6] = assay: Soil treatment test for upland field; assay type: in vivo, Setaria viridis; conditions: 500 g/ha, glass house 25° C., 3 weeks
How it was run: as §1

annual bluegrass [7] = assay: Soil treatment test for upland field; assay type: in vivo, Poa annua; conditions: 500 g/ha, glass house 25° C., 3 weeks
How it was run: as §1

livid amaranth [8] = assay: Soil treatment test for upland field; assay type: in vivo, Amaranthus lividus; conditions: 500 g/ha, glass house 25° C., 3 weeks
How it was run: as §1

corn [9] = assay: Foliar spread test for upland field; assay type: in vivo; conditions: foliar spray 500 ppm, 3 weeks, rank vs non-treated
How it was run: (§2)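 Crop seeds sown in volcanic ash soil in Wagner pots were raised about 2 weeks in a glasshouse, then sprayed with wettable-powder formulations diluted to 500 ppm in water with 0.5% surfactant. After 3 weeks at an average 25° C., injury was scored 0 (normal) to 5 (all killed).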

solgum [10] = assay: Foliar spread test for upland field; assay type: in vivo; conditions: foliar spray 500 ppm, 3 weeks, rank vs non-treated
How it was run: as §2

sugar beat [11] = assay: Foliar spread test for upland field; assay type: in vivo; conditions: foliar spray 500 ppm, 3 weeks, rank vs non-treated
How it was run: as §2

wheat [12] = assay: Foliar spread test for upland field; assay type: in vivo; conditions: foliar spray 500 ppm, 3 weeks, rank vs non-treated
How it was run: as §2

Large crabgrass [13] = assay: Foliar spread test for upland field; assay type: in vivo, Digitaria adscendens; conditions: foliar spray 500 ppm, 3 weeks, rank vs non-treated
How it was run: (§3)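 Wettable powders at 500 ppm, with 0.5% surfactant, were sprayed uniformly over plants raised for roughly 2 weeks in glasshouse pots of volcanic ash soil. Herbicidal damage rated on a 0–5 scale (5 = all killed) after a further 3 weeks at an average 25 °C.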

green foxtail [14] = assay: Foliar spread test for upland field; assay type: in vivo, Setaria viridis; conditions: foliar spray 500 ppm, 3 weeks, rank vs non-treated
How it was run: as §3

annual bluegrass [15] = assay: Foliar spread test for upland field; assay type: in vivo, Poa annua; conditions: foliar spray 500 ppm, 3 weeks, rank vs non-treated
How it was run: as §3

common lambsquartes = assay: Foliar spread test for upland field; assay type: in vivo, Chenopodium album; conditions: foliar spray 500 ppm, 3 weeks, rank vs non-treated
How it was run: as §3

livid amaranth [16] = assay: Foliar spread test for upland field; assay type: in vivo, Amaranthus lividus; conditions: foliar spray 500 ppm, 3 weeks, rank vs non-treated
How it was run: as §3

morning glory = assay: Foliar spread test for upland field; assay type: in vivo, Ipomoea spps.; conditions: foliar spray 500 ppm, 3 weeks, rank vs non-treated
How it was run: as §3

Structure (SMILES): CCC(Oc1ccc(F)c(C(F)(F)F)c1)c1nc2cc(Cl)c(C)cc2o1 (stereo not shown) [Compound 340]
- Effects Corn (corn [1]): 2
- Effects Cotton (cotton): 0
- Effects Solgum (solgum [2]): 3
- Effects Soybean (soybean): 0
- Effects Sugar beat (sugar beat [3]): 5
- Effects Wheat (wheat [4]): 1
- Effects Large crabgrass (Large crabgrass [5]): 5
- Effects Barnyardgrass (barnyardgrass): 4
- Effects Green foxtail (green foxtail [6]): 5
- Effects Annual bluegrass (annual bluegrass [7]): 5
- Effects Livid amaranth (livid amaranth [8]): 5
- Effects Corn (corn [9]): 2
- Effects Solgum (solgum [10]): 2
- Effects Sugar beat (sugar beat [11]): 3
- Effects Wheat (wheat [12]): 2
- Effects Large crabgrass (Large crabgrass [13]): 4
- Effects Green foxtail (green foxtail [14]): 4
- Effects Annual bluegrass (annual bluegrass [15]): 3
- Effects Common lambsquarters (common lambsquartes): 4
- Effects Livid amaranth (livid amaranth [16]): 4
- Effects Morning glory (morning glory): 3

Structure (SMILES): CCC(Oc1cccc(C(F)(F)F)c1)c1nc2cc(C#N)ccc2o1 (stereo not shown) [Compound 190]
- Effects Corn (corn [1]): 2
- Effects Cotton (cotton): 5
- Effects Solgum (solgum [2]): 2
- Effects Soybean (soybean): 0
- Effects Sugar beat (sugar beat [3]): 5
- Effects Wheat (wheat [4]): 2
- Effects Large crabgrass (Large crabgrass [5]): 5
- Effects Barnyardgrass (barnyardgrass): 5
- Effects Green foxtail (green foxtail [6]): 5
- Effects Annual bluegrass (annual bluegrass [7]): 5
- Effects Livid amaranth (livid amaranth [8]): 5
- Effects Corn (corn [9]): 2
- Effects Solgum (solgum [10]): 3
- Effects Sugar beat (sugar beat [11]): 3
- Effects Wheat (wheat [12]): 2
- Effects Large crabgrass (Large crabgrass [13]): 3
- Effects Green foxtail (green foxtail [14]): 5
- Effects Annual bluegrass (annual bluegrass [15]): 4
- Effects Common lambsquarters (common lambsquartes): 4
- Effects Livid amaranth (livid amaranth [16]): 5
- Effects Morning glory (morning glory): 3

Structure (SMILES): CCC(Oc1cccc(C(F)(F)F)c1)c1nc2cc(F)ccc2o1 (stereo not shown) [Compound 120]
- Effects Corn (corn [1]): 0
- Effects Cotton (cotton): 0
- Effects Solgum (solgum [2]): 1
- Effects Soybean (soybean): 0
- Effects Sugar beat (sugar beat [3]): 3
- Effects Wheat (wheat [4]): 0
- Effects Large crabgrass (Large crabgrass [5]): 5
- Effects Barnyardgrass (barnyardgrass): 4
- Effects Green foxtail (green foxtail [6]): 5
- Effects Annual bluegrass (annual bluegrass [7]): 5
- Effects Livid amaranth (livid amaranth [8]): 3
- Effects Corn (corn [9]): 3
- Effects Solgum (solgum [10]): 2
- Effects Sugar beat (sugar beat [11]): 5
- Effects Wheat (wheat [12]): 2
- Effects Large crabgrass (Large crabgrass [13]): 1
- Effects Green foxtail (green foxtail [14]): 3
- Effects Annual bluegrass (annual bluegrass [15]): 1
- Effects Common lambsquarters (common lambsquartes): 4
- Effects Livid amaranth (livid amaranth [16]): 5
- Effects Morning glory (morning glory): 5

Structure (SMILES): CCC(Oc1cccc(C(F)(F)F)c1)c1nc2cc(Cl)c(C)cc2o1 (stereo not shown) [Compound 339, 1-(5-chloro-6-methylbenzoxazol-2-yl)-1-(3-(trifluoromethyl)phenoxy)propane]
- Effects Corn (corn [1]): 1
- Effects Cotton (cotton): 0
- Effects Solgum (solgum [2]): 1
- Effects Soybean (soybean): 1
- Effects Sugar beat (sugar beat [3]): 4
- Effects Wheat (wheat [4]): 1
- Effects Large crabgrass (Large crabgrass [5]): 5
- Effects Barnyardgrass (barnyardgrass): 3
- Effects Green foxtail (green foxtail [6]): 5
- Effects Annual bluegrass (annual bluegrass [7]): 5
- Effects Livid amaranth (livid amaranth [8]): 5
- Effects Corn (corn [9]): 2
- Effects Solgum (solgum [10]): 1
- Effects Sugar beat (sugar beat [11]): 3
- Effects Wheat (wheat [12]): 1
- Effects Large crabgrass (Large crabgrass [13]): 3
- Effects Green foxtail (green foxtail [14]): 2
- Effects Annual bluegrass (annual bluegrass [15]): 2
- Effects Common lambsquarters (common lambsquartes): 4
- Effects Livid amaranth (livid amaranth [16]): 4
- Effects Morning glory (morning glory): 2

Structure (SMILES): CCC(Oc1cccc(C(F)(F)F)c1)c1nc2cc(F)c(C(F)(F)F)cc2o1 (stereo not shown) [Compound 471]
- Effects Cotton (cotton): 1
- Effects Solgum (solgum [2]): 3
- Effects Soybean (soybean): 2
- Effects Sugar beat (sugar beat [3]): 5
- Effects Wheat (wheat [4]): 1
- Effects Large crabgrass (Large crabgrass [5]): 5
- Effects Barnyardgrass (barnyardgrass): 5
- Effects Green foxtail (green foxtail [6]): 5
- Effects Annual bluegrass (annual bluegrass [7]): 5
- Effects Livid amaranth (livid amaranth [8]): 5
- Effects Corn (corn [9]): 2
- Effects Solgum (solgum [10]): 3
- Effects Sugar beat (sugar beat [11]): 5
- Effects Wheat (wheat [12]): 2
- Effects Large crabgrass (Large crabgrass [13]): 5
- Effects Green foxtail (green foxtail [14]): 5
- Effects Annual bluegrass (annual bluegrass [15]): 3
- Effects Common lambsquarters (common lambsquartes): 5
- Effects Livid amaranth (livid amaranth [16]): 5
- Effects Morning glory (morning glory): 5

Structure (SMILES): CCCC(Oc1cccc(C(F)(F)F)c1)c1nc2cc(C#N)c(Cl)cc2o1 (stereo not shown) [Compound 532]
- Effects Corn (corn [1]): 1
- Effects Cotton (cotton): 1
- Effects Solgum (solgum [2]): 1
- Effects Soybean (soybean): 1
- Effects Sugar beat (sugar beat [3]): 5
- Effects Wheat (wheat [4]): 2
- Effects Large crabgrass (Large crabgrass [5]): 5
- Effects Barnyardgrass (barnyardgrass): 5
- Effects Green foxtail (green foxtail [6]): 5
- Effects Annual bluegrass (annual bluegrass [7]): 5
- Effects Livid amaranth (livid amaranth [8]): 5
- Effects Corn (corn [9]): 2
- Effects Solgum (solgum [10]): 2
- Effects Sugar beat (sugar beat [11]): 5
- Effects Large crabgrass (Large crabgrass [13]): 4
- Effects Green foxtail (green foxtail [14]): 5
- Effects Annual bluegrass (annual bluegrass [15]): 4
- Effects Common lambsquarters (common lambsquartes): 5
- Effects Livid amaranth (livid amaranth [16]): 5
- Effects Morning glory (morning glory): 3
